Tested on: trigeminal neurons that innervate the dural vasculature
Test: in vivo electrophysiological recordings from single unit dural-responsive trigeminal neurons (preclinical model of migraine)
Settings: rat; for ongoing neuronal firing of central trigeminal neurons / response to pain-producing stimulation of the dura mater of central trigeminal neurons: intravenous administration, P<0.05 vs. baseline; for ongoing neuronal firing of central trigeminal neurons: FIGS. 1A & 1E; for response to pain-producing stimulation of the dura mater of central trigeminal neurons: FIGS. 1B & 1F; for normal cutaneous facial noxious and innocuous somatosensory responses: same neurons, extracranial somatosensory processing
Description: FIGS. 1A-1H depict a preclinical model of migraine manipulates the pain responsive sensory neurons that innervate the dura mater and its associated blood vessels. The cell bodies of these sensory neurons reside in the trigeminal ganglia. Measuring dural-responsive trigeminal neuronal responses in animals has proven to be extremely predictive of therapeutic efficacy for abortive migraine treatments, such as triptans, and it also translates to migraine preventives. Here we show in vivo electrophysiological recordings in a rat from single unit trigeminal neurons that innervate the dural vasculature. […] Intravenous administration of the migraine abortive, naratriptan (FIGS. 1A-1D) and the migraine preventive, amitriptyline (FIGS. 1E-1H), inhibited ongoing neuronal firing (FIGS. 1A & 1E) and the response to pain-producing stimulation of the dura mater (FIGS. 1B & 1F) of central trigeminal neurons. […] In the same neurons, naratriptan and MRS5980 had no effect on normal cutaneous facial noxious and innocuous somatosensory responses. Amitriptyline, however did affect this normal somatosensory processing. * P<0.05 vs. baseline.

| Structure (SMILES) | ongoing neuronal firing of central trigeminal neurons | response to pain-producing stimulation of the dura mater of central trigeminal neurons | normal cutaneous facial noxious and innocuous somatosensory responses | inhibiting neuronal responses (compared with naratriptan and amitriptyline) (dural-responsive trigeminal neurons) |
| --- | --- | --- | --- | --- |
| CN(C)CCC=C1c2ccccc2CCc2ccccc21 [amitriptyline] | inhibited | inhibited | did affect | – |
| CNS(=O)(=O)CCc1ccc2[nH]cc(C3CCN(C)CC3)c2c1 [naratriptan] | inhibited | inhibited | no effect | – |
| CNC(=O)[C@@]12C[C@@H]1[C@@H](n1cnc3c(NC)nc(C#Cc4ccc(Cl)s4)nc31)[C@H](O)[C@@H]2O [MRS5980] | – | – | no effect | equally efficacious |
